Tests used:
Male C57BL/6 mice [1] = assay: Visual discrimination task; type: in vivo, mouse; settings: Compound 18R 10, 32 or 100 mg/kg s.c.; BIIB-104 0.03 mg/kg s.c. 0-30 min prior
Description: Animals Male C57BL/6 mice (8-10 weeks old) are housed in groups of >2 under standard environmentally controlled conditions (22 to 24° C.; relative humidity of 30 to 70%) with a standard 12-h light cycle. Five days prior to the start of operant conditioning experiments, all subjects are placed on a food restriction diet designed to maintain a stable 80-85% of free feeding weight.
Drugs and Drug Administration. Test compounds and vehicle are administered subcutaneously (s.c.), with doses calculated based on the free base. A pharmacologically inert vehicle is used. All compounds are administered at a volume of 10 mL/kg. Test compounds (in each case, BIIB-104+Compound 18R together, or either compound alone) and vehicle are administered as described below. Mice are tested in a randomized cross-over design such that different compound combinations are tested in the same mice and a sample size of n=8-12/group is achieved. Compound testing sessions are separated by at least 3 days.
Visual Discrimination Procedure. A cohort of mice is trained to perform the visual discrimination task according to published methods (Dillon et al., 2009, Behavioural Brain Research 204, 67-76). The testing apparatus is a standard operant chamber (Med Associates, St Albans, VT). […]

[2] = test system: Male Wistar Han or Wistar Kyoto rats; assay: Elevated plus maze (EPM) in CMS rats; type: in vivo, rat; settings: stressed rats; third week of drug testing (typically day 16); 5-min test
Description: (§1) Animals. Male Wistar Han or Wistar Kyoto rats (Charles River, Sulzfeld, Germany) are brought into the laboratory at the age of 5 weeks (around 100 g), approximately one month before the start of the experiment. Except for the first 10 days after arrival, when the animals are housed in groups of 10, they are singly housed with food and water freely available, and maintained on a 12-h light/dark cycle in constant temperature (22±2° C.) and humidity (45±5%) conditions.
Drugs and Drug Administration. Test compounds or vehicle are administered subcutaneously (s.c.), with doses calculated based on the free base. A pharmacologically inert vehicle (e.g., saline) is used. […]
(§2) After sucrose intake has been measured, rats are dosed with BIIB-104 or vehicle once daily for up to 4 weeks (Table 1).
Elevated Plus Maze (EPM), Animals are tested in two non-transparent boxes, which consist of two open (50×11×40 cm) and two closed (50×11×40 cm) arms. […] The animals are placed in the center of the apparatus and the time spent in each arm, and number of entries into open and closed arms are recorded during a 5-min test.
All rats (all groups in Table 1) are assessed in the EPM in the third week of drug testing (typically day 16). Stressed vehicle-treated rats (S1) have higher levels of anxiety measured by a lower % time spent in open arms compared to control vehicle-treated rats (C1). […]

[3] = test system: Male Wistar Han or Wistar Kyoto rats; assay: Novel object recognition (NOR) test in CMS rats; type: in vivo, rat; settings: stressed rats; third week of drug testing (typically day 17)
Description: as §1
Drugs and Drug Administration. Test compounds or vehicle are administered subcutaneously (s.c.), with doses calculated based on the free base. A pharmacologically inert vehicle (e.g., saline) is used. All compounds are administered at a volume of 2 mL/kg. […]
as §2
Novel Object Recognition (NOR) Test. […] Rats are returned to the open field and the duration of exploration of each object is recorded in a 5-min test. A recognition index is calculated according to the formula: time of novel object exploration minus time of familiar object exploration, divided by total exploration time (novel plus familiar objects). During NOR sessions, the number of line crossings is recorded as a measure of locomotor activity.
All rats (all groups in Table 1) are assessed in the NOR in the third week of drug testing (typically day 17). […]

[4] = test system: Male Wistar Han or Wistar Kyoto rats; assay: Chronic mild stress (CMS) procedure, sucrose intake; type: in vivo, rat; settings: stressed rats
Description: as §1
Drugs and Drug Administration. Test compounds or vehicle are administered subcutaneously (s.c.), with doses calculated based on the free base. A pharmacologically inert vehicle (e.g., saline) is used. All compounds are administered at a volume of 2 mL/kg. Test compounds (in each case, BIIB-104+Compound 18R together, or either compound alone) and vehicle are administered as described below.
Chronic Mild Stress (CMS) Procedure and Sucrose Preference. Male rats (250-350 g) are habituated to drinking 1% sucrose to establish a stable level of sucrose intake. […]
as §2
Sucrose intake is measured once per week, in each case before drug administration for that day (˜24 h after the previous drug administration). […]

Male C57BL/6 mice [5] = assay: Accelerating rotarod; type: in vivo, mouse; settings: Compound 18R 3.2, 10 or 32 mg/kg s.c.; BIIB-104 0.03 mg/kg s.c. 0-30 min prior; 5 min and 30 min after second injection
Description: Animals. Male C57BL/6 mice (8-10 weeks old) are housed in groups of >2 under standard environmentally controlled conditions (22 to 24° C.; relative humidity of 30 to 70%) with a standard 12-h light cycle. Food and water are available ad libitum.
Drugs and Drug Administration. Test compounds and vehicle are administered subcutaneously (s.c.), with doses calculated based on the free base. A pharmacologically inert vehicle is used. All compounds are administered at a volume of 10 mL/kg. Test compounds (in each case, BIIB-104+Compound 18R together, or either compound alone) and vehicle are administered as described below.
Rotarod Procedure. Mice will be trained to stay on a rotating bar (‘rotarod’) on days −4 and −2 by being placed on a bar rotating at 4 rpm for 3 min for 3 sessions separated by ˜10 min. On days −1 and 0, this will be repeated using a faster speed of 15 rpm. Mice that have a fall latency <80 s during training will be omitted from the study. On day 1, mice will be administered (s.c.) vehicle or BIIB-104 (0.03 mg/kg) 0-30 min prior to vehicle or Compound 18R (3.2, 10, or 32 mg/kg), for a total of 8 groups of n=10-12/group. Five min after the second injection, mice will be placed on the rotarod which will accelerate from 4 to 40 rpm over 300 s. The latency of mice to fall will be recorded. […]

Male Sprague Dawley rats = assay: Rat forced swim test (FST); type: in vivo; settings: Example 3; Compound 18R 1, 3.2 or 10 mg/kg s.c., second injection vehicle or BIIB-104 0.03 mg/kg; 23.5 h before Swim 2
Description: Animals. Male Sprague Dawley rats, aged 8-10 weeks, are used in the experiments. Animals are housed in groups of 2 under controlled temperature (22±3° C.) and relative humidity (30-70%) conditions, with 12-hour light/dark cycles, and with ad libitum food and water. All efforts are made to minimize suffering.
Drugs and Drug Administration. Test compounds, vehicle, and the positive control desipramine are administered subcutaneously (s.c.), with doses calculated based on the free base. A pharmacologically inert vehicle is used. All compounds are administered at a volume of 5 mL/kg. Test compounds (in each case, an AMPAR-PAM+an NMDAR-ant together, or either compound alone) and vehicle are administered 0.5 h after the start of the training swim (Swim 1) and 23.5 h before the test swim (Swim 2). Desipramine is administered 3 times, at 23.5 h, 5 h, and 1 h before the test swim (Swim 2), each time at a dose of 20 mg/kg.
Forced Swim Test (FST). […] Group size is N=10 per treatment. […]
Behavioral scoring is conducted by observers who are blind to the treatment groups. Animals are continuously observed during Swim 2 and the total time spent engaging in the following behaviors is recorded: immobile, swimming, and climbing. […]
Drugs and Drug Administration. Test compounds, vehicle, and the positive control desipramine are administered subcutaneously (s.c.), with doses calculated based on the free base. […]

Row | Molecule | visual discrimination test accuracy (Male C57BL/6 mice [1]) | time spent in open arms [2] | preference for the novel object (recognition index) [3] | sucrose intake ([4]; vs vehicle-treated stressed rats, Compound 18R 1.5 mg/kg i.p. day 1, 24 h later) | durability of the effect on sucrose intake ([4]; Compound 18R day 1, then vehicle (S2) or BIIB-104 0.03 mg/kg s.c. (S4) daily days 2-28) | latency to fall off the rotarod (Male C57BL/6 mice [5]) | immobility time (Male Sprague Dawley rats)
1 | CN[C@@]1(c2ccc(F)cc2)CCCCC1=O [Compound 18R] | dose-dependently decreases visual discrimination test accuracy | greater time in the open arms than stressed vehicle-treated rats (S1), but less time than unstressed vehicle-treated rats (C1) | limited preference for exploring the novel object | increase in sucrose intake | 1-2 weeks | dose-dependently reduces the latency of mice to fall | dose-dependent decrease in immobility time
2 | pesampator [BIIB-104, reference compound] |  |  |  |  |  | does not change latency to fall | 

Reference: US20250161264A1, “(AMPAR-PAM)-NMDA RECEPTOR ANTAGONIST COMBINATION THERAPY FOR TREATMENT OF MENTAL CONDITIONS AND DISORDERS” (Gilgamesh Pharmaceuticals, Inc., priority 2022, published 2025)
